Source: US8835377B2, “Oral delivery of peptide pharmaceutical compositions” (UGP Therapeutics, Inc., priority 2004, dated 2014)

Assay: Pharmacokinetics after duodenal injection of unformulated or formulated Dmt-DALDA in anesthetized rats (plasma, HPLC-UV)
Format: in vivo
Details: rats, formulated solution containing citric acid and lauroyl carnitine
Procedure: In the experiments represented in the subject Figure, six anesthetized rats (which were color-coded as: red, white, blue, orange, green and yellow) were given 0.7 mL Dmt-DALDA (1.6 mg/mL) with a syringe through a 27 gauge needle into the duodenum. This injection procedure was followed due to the technical difficulty inherent in preparing capsules which can be swallowed by small animals the size of a rat. The intraduodanal injection, therefore, mimics the release of the components of an enteric-coated capsule formulation which would pass through the esophagus and stomach and release its contents in the duodenum. Three of the rats (red, white and blue) were given Unformulated Dmt-DALDA in which there were no additional components (i.e., other than the Dmt-DALDA), while the other three rats (orange, green and yellow) were given Formulated Dmt-DALDA which included, in addition to the Dmt-DALDA, 0.5M citric acid and lauroyl carnitine (10 mg/ml). Samples of blood were taken from the carotid artery through an indwelling catheter before and 5, 15, 30, 60 and 120 minutes after the administration of the respective formulations (i.e., Formulated and Unformulated). The blood samples were centrifuged and the resulting plasma supernatants were stored frozen at −20° C. […] Peptide was detected with an ultraviolet (UV) detector set at a wavelength of 210 nm. […] Table I, moreover, provides the standard deviations for the data obtained regarding each of the test rats, which standard deviations are also indicated in FIG. 1.
Table II (below) summarizes the pharmacokinetic parameters in rats of orally administered unformulated and formulated Dmt-DALDA as those terms are defined above. Cmax refers to the maximum concentration of peptide detected in the rat plasma. The area under the curve (AUC) is a measure of the extent of peptide absorption and is calculated by the trapezoidal rule from a plot of peptide concentration as a function of time. Tmax indicates when the maximum concentration of the Dmt-DALDA in the blood serum was obtained.

Cc1cc(O)cc(C)c1C[C@H](N)C(=O)N[C@H](CCCNC(=N)N)C(=O)N[C@@H](Cc1ccccc1)C(=O)N[C@@H](CCCCN)C(N)=O [Dmt-DALDA, H-2,6-dimethyltyrosine-D-Arginine-Phenylalanine-Lysine-NH2]
Cmax and AUC, formulated solution vs unformulated: significantly enhanced
